According to ChEMBL document CHEMBL1201862, “PubChem BioAssay data set” (2004):
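All cell lines were grown in 96-well plates and treated with compound for 48 hours. Abbreviation: GI50, concentration required for 50% inhibition of growth.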 Activity calls are given as the source filed them. Cut-off read from the data, not from the text of the source: active = GI50 up to about 1.1 µM and inactive = higher.

Assays:
Test in all cases: growth of human tumour cells (NCI), 48 h
SW-620 = test system: SW-620
IGROV-1 = test system: IGROV-1
DMS-114 = test system: DMS-114
TK-10 = test system: TK-10
HOP-18 = test system: HOP-18
SK-MEL-5 = test system: SK-MEL-5
LOX IMVI = test system: LOX IMVI
ACHN = test system: ACHN
HT-29 = test system: HT-29
LXFL 529 = test system: LXFL 529
SF-295 = test system: SF-295
U-251 = test system: U-251
OVCAR-4 = test system: OVCAR-4
SN12C = test system: SN12C
UO-31 = test system: UO-31
SF-539 = test system: SF-539
NCI-H460 = test system: NCI-H460
786-0 = test system: 786-0
SNB-19 = test system: SNB-19
SR = test system: SR
DMS-273 = test system: DMS-273
XF498 = test system: XF498
CCRF-CEM = test system: CCRF-CEM
KM12 = test system: KM12
K562 = test system: K562
SF-268 = test system: SF-268
UACC-62 = test system: UACC-62
SK-OV-3 = test system: SK-OV-3
RXF 631 = test system: RXF 631
RXF 393 = test system: RXF 393
EKVX = test system: EKVX
OVCAR-8 = test system: OVCAR-8
HL-60 = test system: HL-60
A549 = test system: A549
HOP-62 = test system: HOP-62
SK-MEL-28 = test system: SK-MEL-28
Malme-3M = test system: Malme-3M
MOLT-4 = test system: MOLT-4
A498 = test system: A498
DLD-1 = test system: DLD-1
SK-MEL-2 = test system: SK-MEL-2
CAKI-1 = test system: CAKI-1
UACC-257 = test system: UACC-257
NCI-H23 = test system: NCI-H23
HOP-92 = test system: HOP-92
NCI-H522 = test system: NCI-H522
OVCAR-5 = test system: OVCAR-5
SNB-78 = test system: SNB-78
HCC 2998 = test system: HCC 2998
NCI-H226 = test system: NCI-H226
SNB-75 = test system: SNB-75
KM-20L2 = test system: KM-20L2
HCT-15 = test system: HCT-15
M14 = test system: M14
COLO 205 = test system: COLO 205
RPMI-8226 = test system: RPMI-8226
HCT-116 = test system: HCT-116
M19-MEL = test system: M19-MEL
OVCAR-3 = test system: OVCAR-3

O=[N+]([O-])c1ccccc1C1SCc2nc3ccccc3n21 (stereo unspecified)
GI50 (SW-620): > 100 µM (inactive) | GI50 (IGROV-1): 36.9 µM (inactive) | GI50 (DMS-114): 66.2 µM (inactive) | GI50 (TK-10): 79.1 µM (inactive) | GI50 (HOP-18): > 100 µM (inactive) | GI50 (SK-MEL-5): 18.3 µM (inactive) | GI50 (LOX IMVI): > 100 µM (inactive) | GI50 (ACHN): 92.5 µM (inactive) | GI50 (HT-29): > 100 µM (inactive) | GI50 (LXFL 529): 92.9 µM (inactive) | GI50 (SF-295): 59.2 µM (inactive) | GI50 (U-251): 70.6 µM (inactive) | GI50 (OVCAR-4): > 100 µM (inactive) | GI50 (SN12C): 83.9 µM (inactive) | GI50 (UO-31): 31.6 µM (inactive) | GI50 (SF-539): > 100 µM (inactive) | GI50 (NCI-H460): 78.9 µM (inactive) | GI50 (786-0): > 100 µM (inactive) | GI50 (SNB-19): > 100 µM (inactive) | GI50 (SR): 85.3 µM (inactive) | GI50 (DMS-273): > 100 µM (inactive) | GI50 (XF498): 13.7 µM (inactive) | GI50 (CCRF-CEM): 69.5 µM (inactive) | GI50 (KM12): > 100 µM (inactive) | GI50 (K562): 45.5 µM (inactive) | GI50 (SF-268): > 100 µM (inactive) | GI50 (UACC-62): 54 µM (inactive) | GI50 (SK-OV-3): > 100 µM (inactive) | GI50 (RXF 631): 93.1 µM (inactive) | GI50 (RXF 393): > 100 µM (inactive) | GI50 (EKVX): 75 µM (inactive) | GI50 (OVCAR-8): > 100 µM (inactive) | GI50 (HL-60): 74.6 µM (inactive) | GI50 (A549): 52.4 µM (inactive) | GI50 (HOP-62): 92 µM (inactive) | GI50 (SK-MEL-28): > 100 µM (inactive) | GI50 (Malme-3M): 22.1 µM (inactive) | GI50 (MOLT-4): 44 µM (inactive) | GI50 (A498): 63 µM (inactive) | GI50 (DLD-1): 82 µM (inactive) | GI50 (SK-MEL-2): > 100 µM (inactive) | GI50 (CAKI-1): 78.3 µM (inactive) | GI50 (UACC-257): 46.7 µM (inactive) | GI50 (NCI-H23): 54.1 µM (inactive) | GI50 (HOP-92): 48 µM (inactive) | GI50 (NCI-H522): > 100 µM (inactive)

CN1CCN(c2cc(-c3cc4ccccc4o3)oc(=O)c2C#N)CC1
GI50 (SW-620): > 100 µM (inactive) | GI50 (IGROV-1): 88.9 µM (inactive) | GI50 (DMS-114): 69.2 µM (inactive) | GI50 (TK-10): 59.4 µM (inactive) | GI50 (SK-MEL-5): 72.8 µM (inactive) | GI50 (LOX IMVI): 48.3 µM (inactive) | GI50 (ACHN): 59 µM (inactive) | GI50 (HT-29): 78 µM (inactive) | GI50 (LXFL 529): 81.7 µM (inactive) | GI50 (SF-295): > 100 µM (inactive) | GI50 (U-251): > 100 µM (inactive) | GI50 (OVCAR-4): 93.5 µM (inactive) | GI50 (SN12C): 53.3 µM (inactive) | GI50 (UO-31): > 100 µM (inactive) | GI50 (OVCAR-5): 50.1 µM (inactive) | GI50 (SF-539): 98.4 µM (inactive) | GI50 (NCI-H460): 58.1 µM (inactive) | GI50 (SNB-19): > 100 µM (inactive) | GI50 (SR): 36.8 µM (inactive) | GI50 (DMS-273): 57.9 µM (inactive) | GI50 (SNB-78): > 100 µM (inactive) | GI50 (XF498): > 100 µM (inactive) | GI50 (CCRF-CEM): 71.4 µM (inactive) | GI50 (HCC 2998): > 100 µM (inactive) | GI50 (KM12): 99.3 µM (inactive) | GI50 (K562): 66.5 µM (inactive) | GI50 (SF-268): 51.2 µM (inactive) | GI50 (NCI-H226): 14.2 µM (inactive) | GI50 (RXF 631): 41.4 µM (inactive) | GI50 (RXF 393): 72.6 µM (inactive) | GI50 (EKVX): 45.8 µM (inactive) | GI50 (OVCAR-8): 57.7 µM (inactive) | GI50 (SNB-75): 80.4 µM (inactive) | GI50 (KM-20L2): 89.5 µM (inactive) | GI50 (HCT-15): 99.8 µM | GI50 (HL-60): 43.9 µM (inactive) | GI50 (A549): 70.8 µM (inactive) | GI50 (M14): > 100 µM (inactive) | GI50 (COLO 205): 66.5 µM (inactive) | GI50 (RPMI-8226): 75.5 µM (inactive) | GI50 (SK-MEL-28): > 100 µM (inactive) | GI50 (Malme-3M): > 100 µM (inactive) | GI50 (MOLT-4): 53 µM (inactive) | GI50 (A498): 63.8 µM (inactive) | GI50 (DLD-1): 76 µM (inactive) | GI50 (HCT-116): 77.1 µM (inactive) | GI50 (SK-MEL-2): > 100 µM (inactive) | GI50 (CAKI-1): 36.1 µM (inactive) | GI50 (UACC-257): > 100 µM (inactive) | GI50 (NCI-H23): > 100 µM (inactive)

O=C(Nc1ccc(Br)cc1)C(=O)C(C(=O)c1ccccc1F)C1OC(=O)c2ccccc21 (stereo unspecified)
GI50 (SW-620): 31.9 µM (inactive) | GI50 (IGROV-1): 31.4 µM (inactive) | GI50 (DMS-114): 14 µM (inactive) | GI50 (TK-10): 50.5 µM (inactive) | GI50 (HOP-18): 26.7 µM (inactive) | GI50 (M19-MEL): 17.2 µM (inactive) | GI50 (SK-MEL-5): 27.2 µM (inactive) | GI50 (LOX IMVI): 18.4 µM (inactive) | GI50 (ACHN): 38.5 µM (inactive) | GI50 (HT-29): 39.6 µM (inactive) | GI50 (LXFL 529): 23.1 µM (inactive) | GI50 (U-251): 19.3 µM (inactive) | GI50 (OVCAR-4): 24.7 µM (inactive) | GI50 (SN12C): 27.9 µM (inactive) | GI50 (UO-31): 22.3 µM (inactive) | GI50 (OVCAR-5): 48 µM (inactive) | GI50 (SF-539): 20.1 µM (inactive) | GI50 (OVCAR-3): 39.8 µM (inactive) | GI50 (NCI-H460): 31.8 µM (inactive) | GI50 (786-0): 22.5 µM (inactive) | GI50 (SNB-19): 20.3 µM (inactive) | GI50 (DMS-273): 31 µM (inactive) | GI50 (SNB-78): 27.8 µM (inactive) | GI50 (CCRF-CEM): 18.6 µM (inactive) | GI50 (HCC 2998): 16.9 µM (inactive) | GI50 (KM12): 31.8 µM (inactive) | GI50 (K562): 31 µM (inactive) | GI50 (SF-268): 24.9 µM (inactive) | GI50 (UACC-62): 14 µM (inactive) | GI50 (NCI-H226): 3.48 µM (inactive) | GI50 (SK-OV-3): 27.5 µM (inactive) | GI50 (RXF 631): 34.8 µM (inactive) | GI50 (EKVX): 81.1 µM (inactive) | GI50 (OVCAR-8): 24.8 µM (inactive) | GI50 (SNB-75): 19.7 µM (inactive) | GI50 (KM-20L2): 40.1 µM (inactive) | GI50 (HCT-15): 28.8 µM | GI50 (HL-60): 23.7 µM (inactive) | GI50 (A549): 39.7 µM (inactive) | GI50 (M14): 16.5 µM (inactive) | GI50 (HOP-62): 22.8 µM (inactive) | GI50 (COLO 205): 20.4 µM (inactive) | GI50 (RPMI-8226): 17.8 µM (inactive) | GI50 (SK-MEL-28): 18.7 µM (inactive) | GI50 (Malme-3M): 15.3 µM (inactive) | GI50 (MOLT-4): 25.3 µM (inactive) | GI50 (A498): 40.1 µM (inactive) | GI50 (DLD-1): 26.2 µM (inactive) | GI50 (HCT-116): 17.7 µM (inactive) | GI50 (SK-MEL-2): 21.8 µM (inactive) | GI50 (CAKI-1): 37.8 µM (inactive) | GI50 (UACC-257): 24.8 µM (inactive) | GI50 (NCI-H23): 17.9 µM (inactive) | GI50 (HOP-92): 27.7 µM (inactive) | GI50 (NCI-H522): 20.7 µM (inactive)
